According to publication PMC7024253, “New Napyradiomycin Analogues from Streptomyces sp. Strain CA-271078” (Marine Drugs, 2019):
Values after ≈ are worked out from the molar mass of the structure shown. Like-named read-outs stand apart in the source and are kept apart here.

Experiments:
[1] = system: methicillin-resistant S. aureus (MRSA) MB5393; test: Antibacterial assay against MRSA; format: cell-based, Staphylococcus aureus; conditions: for MIC: Staphylococcus aureus; for MIC / MIC MRSA: MIC = lowest concentration inhibiting ≥ 95% of growth after overnight incubation, top concentration 96 μg/mL (64 μg/mL for 3 and 8)
E. coli ATCC 25922 = test: Antibacterial assay against E. coli; format: cell-based, Escherichia coli; conditions: top concentration 96 μg/mL (64 μg/mL for 3 and 8); for MIC: Escherichia coli, ATCC25922, MIC = lowest concentration inhibiting ≥ 95% of growth; for MIC Ec: MIC = lowest concentration inhibiting ≥ 95% of growth
A. baumannii MB5973 = test: Antibacterial assay against A. baumannii; format: cell-based, Acinetobacter baumannii; conditions: MIC = lowest concentration inhibiting ≥ 95% of growth, top concentration 96 μg/mL (64 μg/mL for 3 and 8); for MIC: Acinetobacter baumannii
[2] = system: human liver adenocarcinoma cell line (HepG2); test: Cytotoxicity assay against HepG2; format: cell-based; conditions: for IC50: 10 two-fold dilutions starting at 150, 100 (3, 8) or 30.0 μg/mL (1, 5)
M. tuberculosis H37Ra = test: Antibacterial assay against M. tuberculosis; format: cell-based, Mycobacterium tuberculosis; conditions: for MIC: Mycobacterium tuberculosis; for MIC / MIC Mt: M. tuberculosis H37Ra, MIC = lowest concentration inhibiting ≥ 95% of growth, top concentration 96 μg/mL (64 μg/mL for 3 and 8)
A. fumigatus ATCC46645 = test: Antifungal assay against A. fumigatus; format: cell-based, Aspergillus fumigatus; conditions: A. fumigatus ATCC 46645, MIC = lowest concentration inhibiting ≥ 95% of growth, top concentration 96 μg/mL (64 μg/mL for 3 and 8); for MIC: Aspergillus fumigatus, ATCC46645
[3] = MRSA MB5393, read-out: MIC MRSA
[4] = Homo sapiens, HepG2, HepG-2 cytotoxicity
[5] = MRSA, read-out: MIC MRSA, MRSA MB5393

C=C(C)C(O)CCC(C)=CCC12OC(C)(C)C(O)C=C1C(=O)c1c(O)cc(O)cc1C2=O (stereo not shown) [Compound 1, Napyradiomycin A3]
MIC [1, 3]: > 96 µg/mL
MIC (E. coli ATCC 25922): > 96 µg/mL
MIC (A. baumannii MB5973): > 96 µg/mL
IC50 [2, 4]: > 67.8 µM

CC1(C)O[C@@]2(C[C@H]3C(C)(C)[C@@H](Cl)CC[C@]3(C)O)C(=O)c3cc(O)cc(O)c3C(=O)C2=C[C@H]1Cl [Compound 2, Napyradiomycin B7a]
MIC [1, 5]: 3 to 48 µg/mL (≈ 6.03 to 96.5 µM)
MIC [1, 3]: 48 µg/mL (≈ 96.5 µM)
MIC (M. tuberculosis H37Ra): 12 to 24 µg/mL (≈ 24.1 to 48.2 µM)
MIC (E. coli ATCC 25922): > 96 µg/mL
MIC (A. baumannii MB5973): > 96 µg/mL
MIC (A. fumigatus ATCC46645): > 96 µg/mL
IC50 ([2]; HepG-2 cytotoxicity): 41.7 µM
IC50 [2, 4]: < 50 µM

CC1(C)O[C@@]2(C[C@H]3C(C)(C)[C@@H](Cl)CC[C@]3(C)O)C(=O)c3cc(O)cc(O)c3C(=O)C2=C[C@@H]1Cl [Compound 3, Napyradiomycin B7b]
MIC [1, 3]: > 64 µg/mL
MIC (M. tuberculosis H37Ra): > 64 µg/mL
MIC (E. coli ATCC 25922): > 64 µg/mL
MIC (A. baumannii MB5973): > 64 µg/mL
MIC (A. fumigatus ATCC46645): > 64 µg/mL
IC50 [2, 4]: 110 µM

CC1(C)O[C@@]2(C[C@H]3C(C)(C)[C@@H](Cl)CC[C@]3(C)O)C(=O)c3cc(O)cc(O)c3C(=O)[C@@]2(O)C[C@H]1Cl [Compound 4, Napyradiomycin SC]
MIC [1, 3]: > 96 µg/mL
MIC (M. tuberculosis H37Ra): 24 to 48 µg/mL (≈ 46.6 to 93.1 µM)
MIC (E. coli ATCC 25922): > 96 µg/mL
MIC (A. baumannii MB5973): > 96 µg/mL
MIC (A. fumigatus ATCC46645): > 96 µg/mL
IC50 [2, 4]: 264 µM

CC1=CCC23OC(C)(C)C(Cl)CC2(Cl)C(=O)c2c(cc(O)cc2C3=O)OCC(C)=CCC1 (stereo not shown) [Compound 5, Napyradiomycin D1]
MIC [1, 5]: 3 to 48 µg/mL (≈ 6.26 to 100 µM)
MIC [1, 3]: 12 to 24 µg/mL (≈ 25 to 50.1 µM)
growth-inhibitory activity against methicillin-resistant Staphylococcus aureus (in words) ([1]; abstract statement): significant growth-inhibitory activity
MIC (M. tuberculosis H37Ra): 24 to 48 µg/mL (≈ 50.1 to 100 µM)
growth-inhibitory activity against Mycobacterium tuberculosis (in words) (M. tuberculosis H37Ra; abstract statement): significant growth-inhibitory activity
MIC (E. coli ATCC 25922): > 96 µg/mL
MIC (A. baumannii MB5973): > 96 µg/mL
growth-inhibitory activity against HepG2 (in words) ([2]; abstract statement): significant growth-inhibitory activity

CC1(C)OC2=C(CC1Cl)C(=O)c1c(O)cc(O)cc1C2=O (stereo not drawn) [Compound 7, 3-chloro-6,8-dihydroxy-8-α-lapachone]
MIC MRSA ([1]; MRSA MB5393): 48 to 96 µg/mL
MIC Mt (M. tuberculosis H37Ra): 12 to 24 µg/mL
MIC Ec (E. coli ATCC 25922): >96 µg/mL
MIC Ab (A. baumannii MB5973): >96 µg/mL
MIC Af (A. fumigatus ATCC46645): >96 µg/mL
IC50 ([2]; HepG-2 cytotoxicity): 187 µM

COc1cc(O)c2c(c1)C(=O)C1=C(CC(Cl)C(C)(C)O1)C2=O (stereo not drawn) [Compound 8, 3-chloro-6-hydroxy-8-methoxy-α-lapachone]
MIC MRSA ([1]; MRSA MB5393): >64 µg/mL
MIC Mt (M. tuberculosis H37Ra): >64 µg/mL
MIC Ec (E. coli ATCC 25922): >64 µg/mL
MIC Ab (A. baumannii MB5973): >64 µg/mL
MIC Af (A. fumigatus ATCC46645): >64 µg/mL
IC50 ([2]; HepG-2 cytotoxicity): 30.2 µM

CC(=CCCC(C)=CCC12OC(C)(C)C(Cl)CC1(Cl)C(=O)c1c(O)cc(O)cc1C2=O)CO (stereo not shown) [Compound 10, 18-hydroxynapyradiomycin A1]
MIC MRSA ([1]; MRSA MB5393): 48 to 96 µg/mL
MIC Mt (M. tuberculosis H37Ra): >96 µg/mL
MIC Ec (E. coli ATCC 25922): >96 µg/mL
MIC Ab (A. baumannii MB5973): >96 µg/mL
MIC Af (A. fumigatus ATCC46645): >96 µg/mL
IC50 ([2]; HepG-2 cytotoxicity): 64.4 µM

CC1(C)O[C@@]2(C[C@H]3C(C)(C)[C@@H](Cl)CC[C@]3(C)O)C(=O)c3cc(O)cc(O)c3C(=O)[C@@]2(Cl)C[C@H]1Cl [Compound 13, napyradiomycin B4]
MIC MRSA ([1]; MRSA MB5393): 12 to 24 µg/mL
MIC Mt (M. tuberculosis H37Ra): 12 to 24 µg/mL
MIC Ec (E. coli ATCC 25922): >96 µg/mL
MIC Ab (A. baumannii MB5973): >96 µg/mL
MIC Af (A. fumigatus ATCC46645): >96 µg/mL

napyradiomycin A2a [Compound 11]
MIC MRSA ([1]; MRSA MB5393): 12 to 24 µg/mL
MIC Mt (M. tuberculosis H37Ra): 48 to 96 µg/mL
MIC Ec (E. coli ATCC 25922): >96 µg/mL
MIC Ab (A. baumannii MB5973): >96 µg/mL
MIC Af (A. fumigatus ATCC46645): >96 µg/mL
IC50 ([2]; HepG-2 cytotoxicity): 30.4 µM

napyradiomycin A2b [Compound 12]
MIC MRSA ([1]; MRSA MB5393): 12 to 24 µg/mL
MIC Mt (M. tuberculosis H37Ra): 48 to 96 µg/mL
MIC Ec (E. coli ATCC 25922): >96 µg/mL
MIC Ab (A. baumannii MB5973): >96 µg/mL
MIC Af (A. fumigatus ATCC46645): >96 µg/mL
IC50 ([2]; HepG-2 cytotoxicity): 28.6 µM

napyradiomycin B2 [Compound 14]
MIC MRSA ([1]; MRSA MB5393): 3 to 6 µg/mL
MIC Mt (M. tuberculosis H37Ra): 24 to 48 µg/mL
MIC Ec (E. coli ATCC 25922): >96 µg/mL
MIC Ab (A. baumannii MB5973): >96 µg/mL
MIC Af (A. fumigatus ATCC46645): >96 µg/mL
IC50 ([2]; HepG-2 cytotoxicity): 27.1 µM

napyradiomycin B5 [Compound 15]
MIC MRSA ([1]; MRSA MB5393): 12 to 24 µg/mL
MIC Mt (M. tuberculosis H37Ra): 24 to 48 µg/mL
MIC Ec (E. coli ATCC 25922): >96 µg/mL
MIC Ab (A. baumannii MB5973): >96 µg/mL
MIC Af (A. fumigatus ATCC46645): >96 µg/mL
IC50 ([2]; HepG-2 cytotoxicity): 40.1 µM

napyradiomycin B6 [Compound 9]
MIC MRSA ([1]; MRSA MB5393): 48 to 96 µg/mL
MIC Mt (M. tuberculosis H37Ra): 12 to 24 µg/mL
MIC Ec (E. coli ATCC 25922): >96 µg/mL
MIC Ab (A. baumannii MB5973): >96 µg/mL
MIC Af (A. fumigatus ATCC46645): >96 µg/mL
IC50 ([2]; HepG-2 cytotoxicity): 71.2 µM
